According to patent US4112097A, “Antihypertensive agents” (Abbott Laboratories, priority 1977, dated 1978):
Structures can show the parent of a compound that is named as a salt. Each block holds one compound with its values, some of them ahead of it.

How the values were obtained:
[1] = physchem; conditions: water
Procedure: The water in the filtrate was removed in vacuo and the residue weighed and found to be 16.7 mg.

[2] = system: spontaneously hypertensive (SH) rats; assay: Antihypertensive effect (blood pressure and heart rate) in spontaneously hypertensive rats; format: in vivo, rat; conditions: for Percent Change BP (blood pressure) / Percent Change HR (heart rate): N=4, mean; for Percent Change (antihypertensive effect): individual values of 2 rats
Procedure: The screening is conducted as follows:
Male spontaneously hypertensive (SH) rats are trained to be restrained in a wire mesh cylinder in a warming box, at least two training cycles being conducted before testing. The rats are warmed for about 1/2 hour period to blood pressure measurement, the warming box being maintained at a constant temperature of 36° C.
An occluding cuff attached to the programed sphymomanometer is placed near the base of the tail of each rat and the pressure in the cuff is increased automatically from 0 to 250 milimeters of mercury (mm Hg) at a rate of 10 mm Hg per second. The total time for each cycle of inflation and deflation of the cuff is 50 seconds and the interval between cycles is one minute.
A photocell is placed distal to the cuff to record the pulses due to forward motion of blood flow with each heart beat. As the pressure in the cuff increases, the pulse disappears completely at a point where cuff pressure equals or exceeds the arterial blood pressure and it reappears during deflation at approximately the same pressure. Five interference free signals for deflation are recorded for each rat. Rats with a blood pressure of 180 mm Hg or more during the control period are used in the study. Blood pressure and heart rate readings are recorded on a model VII Grass polygraph at intervals of 1, 3, 5 and 24 hours after administration of the drug.

[3] = intraperitoneal 0.3 mg/kg, 1 hour
[4] = intraperitoneal 0.3 mg/kg, 3 hours
[5] = intraperitoneal 0.3 mg/kg, 5 hours
[6] = intraperitoneal 0.3 mg/kg, 24 hours
[7] = intraperitoneal 1 mg/kg, 1 hour
[8] = intraperitoneal 1 mg/kg, 3 hours
[9] = intraperitoneal 1 mg/kg, 5 hours
[10] = intraperitoneal 1 mg/kg, 24 hours
[11] = intraperitoneal 3 mg/kg, 1 hour
[12] = intraperitoneal 3 mg/kg, 3 hours
[13] = intraperitoneal 3 mg/kg, 5 hours
[14] = intraperitoneal 3 mg/kg, 24 hours
[15] = intraperitoneal 10 mg/kg, 1 hour
[16] = intraperitoneal 10 mg/kg, 3 hours
[17] = intraperitoneal 10 mg/kg, 5 hours
[18] = intraperitoneal 10 mg/kg, 24 hours
[19] = intraperitoneal 30 mg/kg, 1 hour
[20] = intraperitoneal 30 mg/kg, 3 hours
[21] = intraperitoneal 30 mg/kg, 5 hours
[22] = intraperitoneal 30 mg/kg, 24 hours

solubility [1]: 56.5 mg/mL
SMILES: COc1cc2nc(N3CCN(C(=O)C4CCCCO4)CC3)nc(N)c2cc1OC (centres unmarked) [2-[4(Tetrahydropyran-2-Carbonyl)Piperazinyl]-4-Amino-6,7-Dimethoxyquinazoline Hydrochloride]

SMILES: COc1cc2nc(N3CCN(C(=O)C4CCCO4)CC3)nc(N)c2cc1OC (centres unmarked) [Formula II, 2[4(tetrahydro-2-furoyl)-piperazino]-4-amino-6,7-dimethoxyquinazoline]
antihypertensive effect in words ([2]; SH rats): potent antihypertensive agents which lower the blood pressure of spontaneously hypertensive rats
heart rate in words ([2]; SH rats): without causing any significant changes in heart rate
Percent Change BP (blood pressure) [2, 3]: -22.3%
Percent Change HR (heart rate) [2, 3]: 20.0%
Percent Change BP (blood pressure) [2, 4]: -26.5%
Percent Change HR (heart rate) [2, 4]: 10.3%
Percent Change BP (blood pressure) [2, 5]: -20.5%
Percent Change HR (heart rate) [2, 5]: 14.3%
Percent Change BP (blood pressure) [2, 6]: 2.5%
Percent Change HR (heart rate) [2, 6]: 10.0%
Percent Change BP (blood pressure) [2, 7]: -26.5%
Percent Change HR (heart rate) [2, 7]: 22.8%
Percent Change BP (blood pressure) [2, 8]: -27.5%
Percent Change HR (heart rate) [2, 8]: 2.8%
Percent Change BP (blood pressure) [2, 9]: -17.0%
Percent Change HR (heart rate) [2, 9]: 11.5%
Percent Change BP (blood pressure) [2, 10]: 3.8%
Percent Change HR (heart rate) [2, 10]: -9.5%
Percent Change BP (blood pressure) [2, 11]: -45.3%
Percent Change HR (heart rate) [2, 11]: 7.8%
Percent Change BP (blood pressure) [2, 12]: -39.0%
Percent Change HR (heart rate) [2, 12]: -1.5%
Percent Change BP (blood pressure) [2, 13]: -40.0%
Percent Change HR (heart rate) [2, 13]: 3.0%
Percent Change BP (blood pressure) [2, 14]: -2.3%
Percent Change HR (heart rate) [2, 14]: -0.5%
Percent Change BP (blood pressure) [2, 15]: -49.8%
Percent Change HR (heart rate) [2, 15]: 9.0%
Percent Change BP (blood pressure) [2, 16]: -41.5%
Percent Change HR (heart rate) [2, 16]: 24.5%
Percent Change BP (blood pressure) [2, 17]: -41.8%
Percent Change HR (heart rate) [2, 17]: 34.5%
Percent Change BP (blood pressure) [2, 18]: -7.5%
Percent Change HR (heart rate) [2, 18]: 14.0%
Percent Change BP (blood pressure) [2, 19]: -59.5%
Percent Change HR (heart rate) [2, 19]: -9.0%
Percent Change BP (blood pressure) [2, 20]: -42.3%
Percent Change HR (heart rate) [2, 20]: 1.8%
Percent Change BP (blood pressure) [2, 21]: -44.5%
Percent Change HR (heart rate) [2, 21]: 5.3%
Percent Change BP (blood pressure) [2, 22]: -22.3%
Percent Change HR (heart rate) [2, 22]: 5.8%
Percent Change BP (blood pressure) ([2]; oral 0.03 mg/kg, 1 hour): -5.3%
Percent Change HR (heart rate) ([2]; oral 0.03 mg/kg, 1 hour): -4.3%
Percent Change BP (blood pressure) ([2]; oral 0.03 mg/kg, 3 hours): -1.8%
Percent Change HR (heart rate) ([2]; oral 0.03 mg/kg, 3 hours): -8.5%
Percent Change BP (blood pressure) ([2]; oral 0.03 mg/kg, 5 hours): -9.3%
Percent Change HR (heart rate) ([2]; oral 0.03 mg/kg, 5 hours): -14.5%
Percent Change BP (blood pressure) ([2]; oral 0.03 mg/kg, 24 hours): -3.3%
Percent Change HR (heart rate) ([2]; oral 0.03 mg/kg, 24 hours): -8.8%
Percent Change BP (blood pressure) ([2]; oral 0.1 mg/kg, 1 hour): 3.8%
Percent Change HR (heart rate) ([2]; oral 0.1 mg/kg, 1 hour): 3.0%
Percent Change BP (blood pressure) ([2]; oral 0.1 mg/kg, 3 hours): 1.8%
Percent Change HR (heart rate) ([2]; oral 0.1 mg/kg, 3 hours): 4.8%
Percent Change BP (blood pressure) ([2]; oral 0.1 mg/kg, 5 hours): -7.3%
Percent Change HR (heart rate) ([2]; oral 0.1 mg/kg, 5 hours): -6.8%
Percent Change BP (blood pressure) ([2]; oral 0.1 mg/kg, 24 hours): -1.5%
Percent Change HR (heart rate) ([2]; oral 0.1 mg/kg, 24 hours): -0.3%
Percent Change BP (blood pressure) ([2]; oral 0.3 mg/kg, 1 hour): -15.8%
Percent Change HR (heart rate) ([2]; oral 0.3 mg/kg, 1 hour): -1.0%
Percent Change BP (blood pressure) ([2]; oral 0.3 mg/kg, 3 hours): -22.8%
Percent Change HR (heart rate) ([2]; oral 0.3 mg/kg, 3 hours): -2.8%
Percent Change BP (blood pressure) ([2]; oral 0.3 mg/kg, 5 hours): -21.3%
Percent Change HR (heart rate) ([2]; oral 0.3 mg/kg, 5 hours): -2.8%
Percent Change BP (blood pressure) ([2]; oral 0.3 mg/kg, 24 hours): 2.0%
Percent Change HR (heart rate) ([2]; oral 0.3 mg/kg, 24 hours): 10.5%
Percent Change BP (blood pressure) ([2]; oral 1 mg/kg, 1 hour): -15.8%
Percent Change HR (heart rate) ([2]; oral 1 mg/kg, 1 hour): -9.0%
Percent Change BP (blood pressure) ([2]; oral 1 mg/kg, 3 hours): -17.3%
Percent Change HR (heart rate) ([2]; oral 1 mg/kg, 3 hours): -9.3%
Percent Change BP (blood pressure) ([2]; oral 1 mg/kg, 5 hours): -22.5%
Percent Change HR (heart rate) ([2]; oral 1 mg/kg, 5 hours): -8.5%
Percent Change BP (blood pressure) ([2]; oral 1 mg/kg, 24 hours): 3.5%
Percent Change HR (heart rate) ([2]; oral 1 mg/kg, 24 hours): -4.5%
Percent Change BP (blood pressure) ([2]; oral 3 mg/kg, 1 hour): -29.0%
Percent Change HR (heart rate) ([2]; oral 3 mg/kg, 1 hour): -9.3%
Percent Change BP (blood pressure) ([2]; oral 3 mg/kg, 3 hours): -33.3%
Percent Change HR (heart rate) ([2]; oral 3 mg/kg, 3 hours): -11.0%
Percent Change BP (blood pressure) ([2]; oral 3 mg/kg, 5 hours): -31.5%
Percent Change HR (heart rate) ([2]; oral 3 mg/kg, 5 hours): -11.0%
Percent Change BP (blood pressure) ([2]; oral 3 mg/kg, 24 hours): -12.3%
Percent Change HR (heart rate) ([2]; oral 3 mg/kg, 24 hours): -5.3%
Percent Change BP (blood pressure) ([2]; oral 10 mg/kg, 1 hour): -37.0%
Percent Change HR (heart rate) ([2]; oral 10 mg/kg, 1 hour): 12.3%
Percent Change BP (blood pressure) ([2]; oral 10 mg/kg, 3 hours): -42.0%
Percent Change HR (heart rate) ([2]; oral 10 mg/kg, 3 hours): 16.5%
Percent Change BP (blood pressure) ([2]; oral 10 mg/kg, 5 hours): -38.0%
Percent Change HR (heart rate) ([2]; oral 10 mg/kg, 5 hours): -10.3%
Percent Change BP (blood pressure) ([2]; oral 10 mg/kg, 24 hours): -12.0%
Percent Change HR (heart rate) ([2]; oral 10 mg/kg, 24 hours): 1.5%
Percent Change BP (blood pressure) ([2]; oral 30 mg/kg, 1 hour): -30.0%
Percent Change HR (heart rate) ([2]; oral 30 mg/kg, 1 hour): -9.8%
Percent Change BP (blood pressure) ([2]; oral 30 mg/kg, 3 hours): -23.8%
Percent Change HR (heart rate) ([2]; oral 30 mg/kg, 3 hours): -8.8%
Percent Change BP (blood pressure) ([2]; oral 30 mg/kg, 5 hours): -26.0%
Percent Change HR (heart rate) ([2]; oral 30 mg/kg, 5 hours): -15.5%
Percent Change BP (blood pressure) ([2]; oral 30 mg/kg, 24 hours): -4.0%
Percent Change HR (heart rate) ([2]; oral 30 mg/kg, 24 hours): -8.0%

SMILES: COc1cc2nc(N3CCN(C(=O)C4CCCCO4)CC3)nc(N)c2cc1OC (centres unmarked) [Formula III, 2-[4(tetrahydropyran-2-carbonyl)piperazinyl]-4-amino-6,7-dimethoxyquinazoline]
Percent Change (antihypertensive effect) [2, 19]: -58%
Percent Change (antihypertensive effect) [2, 20]: -71%
Percent Change (antihypertensive effect) [2, 21]: -47%
Percent Change (antihypertensive effect) [2, 22]: -28%
Percent Change (antihypertensive effect) ([2]; oral 1 mg/kg, 1 hour, 1 mg/kg): -34%
Percent Change (antihypertensive effect) ([2]; oral 1 mg/kg, 3 hours, 1 mg/kg): -25%
Percent Change (antihypertensive effect) ([2]; oral 1 mg/kg, 5 hours, 1 mg/kg): -21%
Percent Change (antihypertensive effect) ([2]; oral 1 mg/kg, 24 hours, 1 mg/kg): -7%
